Test results reported in patent US20240376097A1, “BCL-2 Inhibitor” (BeiGene Ltd., priority 2020, published 2024).

What was measured:
Format in all cases: binding
[1] = molecular target: Recombinant human Bcl-2 protein (Homo sapiens (Human), UniProt P10415); experiment: Bcl-2 TR-FRET Assay; settings: Bcl-2 wild type, TR-FRET; read-out: Biochemical assay (IC50, nM) Bcl-2 WT
Experimental: Biological Example: Bcl-2 TR-FRET Assay
Compounds disclosed herein were tested for blocking of Bcl-2 protein with its ligand in an assay based on Time-Resolved Fluorescence Resonance Energy Transfer (TR-FRET) methodology. Recombinant human 0.05 nM Bcl-2 protein was pre-incubated with a serial dilution of compounds disclosed herein (top final concentration is 1 uM or 0.1 uM or 0.02 uM or 0.01 uM, 10 points) at room temperature for 0.5 hour in an assay buffer containing 20 mM potassium phosphate buffer, pH 7.5, 50 mM NaCl. 1 mM EDTA, 0.05% Tween-20, 0.01% BSA. Then the FITC labeled Bak peptide Ac-GQVGRQLAIIGDK(FITC)INR-amide (0.5 nM) and MAb Anti 6His Tb cryptate Gold were added to plate and further incubated at room temperature for 1 hour. The TR-FRET signals (337 nm-520 nm-490 nm) were read on BMG PHERAstar FSX instrument. The inhibition percentage of Bcl-2 interaction with its ligand in presence of increasing concentrations of compounds was calculated based on the TR-FRET signals. The IC50 for each compound was derived from fitting the data to the four-parameter logistic equation by Graphpad Prism software or Dotmatics.

[2] = molecular target: recombinant human Bcl-2-G101V protein (Homo sapiens (Human), UniProt P10415, G101V); experiment: Bcl-2-G101V TR-FRET Assay; settings: Bcl-2 G101V mutant, TR-FRET; read-out: Biochemical assay (IC50, nM) Bcl-2 G101V
Experimental: (§1) Biological Example: Bcl-2-G101V TR-FRET Assay
(§2) […]. The TR-FRET signals (ex337 nm, em490 nm/520 nm) were read on BMG PHERAstar FSX instrument. The inhibition percentage of Bcl-2-G101V interaction with its ligand in presence of increasing concentrations of compounds was calculated based on the ratio of fluorescence at 490 nm to that at 520 nm. The IC50 for each compound was derived from fitting the data to the four-parameter logistic equation by Graphpad Prism software or Dotmatics.

[3] = test system: recombinant human Bcl-2-G101V protein; experiment: Bcl-2-G101V TR-FRET Assay; settings: ratio of biochemical IC50 Bcl-2 G101V / Bcl-2 WT
Experimental: as §1, §2

| SMILES | IC50 [1] | IC50 [2] | Ratio of Bcl-2 G101V/WT [3] |
| --- | --- | --- | --- |
| CC(C)c1ccccc1C1CN(Cc2cccc3c2CCCC3)CCN1C1CC2(CCN(c3ccc(C(=O)NS(=O)(=O)c4ccc(NC[C@H]5CC[C@](C)(O)CC5)c([N+](=O)[O-])c4)c(Oc4cnc5[nH]ccc5c4)c3)CC2)C1 (stereo partly drawn) [Example 55, 2-((1H-pyrrolo[2,3-b]pyridin-5-yl)oxy)-N-((4-((((1r,4r)-4-hydroxy-4-methylcyclohexyl)methyl)amino)-3-nitrophenyl)sulfonyl)-4-(2-(2-(2-isopropylphenyl)-4-((5,6,7,8-tetrahydronaphthalen-1-yl)methyl)piperazin-1-yl)-7-azaspiro[3.5]nonan-7-yl)benzamide] | 3.8 nM | 12 nM | 3.2 |
| COc1ccc(CN2CCN(C3CC4(CCN(c5ccc(C(=O)NS(=O)(=O)c6ccc(NC[C@H]7CC[C@](C)(O)CC7)c([N+](=O)[O-])c6)c(Oc6cnc7[nH]ccc7c6)c5)CC4)C3)C(c3cc(Cl)ccc3C(C)C)C2)cc1 (stereo partly drawn) [Example 247, 2-((1H-pyrrolo[2,3-b]pyridin-5-yl)oxy)-4-(2-(2-(5-chloro-2-isopropylphenyl)-4-(4-methoxybenzyl)piperazin-1-yl)-7-azaspiro[3.5]nonan-7-yl)-N-((4-((((1r,4r)-4-hydroxy-4-methylcyclohexyl)methyl)amino)-3-nitrophenyl)sulfonyl)benzamide] | 0.8 nM | 3.3 nM | 4.2 |
| COc1ccc(CN2CCN(C3CC4(CCN(c5ccc(C(=O)NS(=O)(=O)c6ccc(NC[C@H]7CC[C@](C)(O)CC7)c([N+](=O)[O-])c6)c(Oc6cnc7[nH]cc(F)c7c6)c5)CC4)C3)[C@H](c3ccccc3C(C)C)C2)cc1 (single isomer, unassigned) [Example 95, 2-((3-fluoro-1H-pyrrolo[2,3-b]pyridin-5-yl)oxy)-N-((4-((((1r,4r)-4-hydroxy-4-methylcyclohexyl)methyl)amino)-3-nitrophenyl)sulfonyl)-4-(2-((R or S)-2-(2-isopropylphenyl)-4-(4-methoxybenzyl)piperazin-1-yl)-7-azaspiro[3.5]nonan-7-yl) benzamide] | 0.23 nM | 0.38 nM | 1.7 |
| COc1cc(CN2CCN(C3CC4(C3)CN(c3ccc(C(=O)NS(=O)(=O)c5ccc(NC[C@H]6CC[C@](C)(O)CC6)c([N+](=O)[O-])c5)c(Oc5cnc6[nH]cc(F)c6c5)c3)C4)[C@H](c3ccccc3C(C)C)C2)ccc1C(F)(F)F [Example 289, 2-((3-fluoro-1H-pyrrolo[2,3-b]pyridin-5-yl)oxy)-N-((4-((((1r,4r)-4-hydroxy-4-methylcyclohexyl)methyl)amino)-3-nitrophenyl)sulfonyl)-4-(6-((R)-2-(2-isopropylphenyl)-4-(3-methoxy-4-(trifluoromethyl)benzyl)piperazin-1-yl)-2-azaspiro[3.3]heptan-2-yl) benzamide] | 1.7 nM | 4 nM | 2.3 |
| COc1ccc(CN2CCN(C3CC4(CCN(c5ccc(C(=O)NS(=O)(=O)c6ccc(NC[C@H]7CC[C@](C)(O)CC7)c([N+](=O)[O-])c6)c(Oc6cnc7[nH]ccc7c6)c5)CC4)C3)C(c3ccccc3C3CCCC3)C2)cc1 (stereo partly drawn) [Example 36, 2-((1H-pyrrolo[2,3-b]pyridin-5-yl)oxy)-4-(2-(2-(2-cyclopentylphenyl)-4-(4-methoxybenzyl)piperazin-1-yl)-7-azaspiro[3.5]nonan-7-yl)-N-((4-((((1r,4r)-4-hydroxy-4-methylcyclohexyl)methyl)amino)-3-nitrophenyl)sulfonyl)benzamide] | 0.58 nM | 16 nM | 27.6 |
| COc1cc(CN2CCN(C3CC4(CCN(c5ccc(C(=O)NS(=O)(=O)c6ccc(NC[C@H]7CC[C@](C)(O)CC7)c([N+](=O)[O-])c6)c(Oc6cnc7[nH]ccc7c6)c5)CC4)C3)[C@H](c3ccccc3C(C)C)C2)ccc1CC(C)C [Example 293] | 3.2 nM | 11 nM | 3.4 |
| CC(C)c1ccccc1C1CN(Cc2ccc(Cl)c(Cl)c2)CCN1C1CC2(CCN(c3ccc(C(=O)NS(=O)(=O)c4ccc(NC[C@H]5CC[C@](C)(O)CC5)c([N+](=O)[O-])c4)c(Oc4cnc5[nH]ccc5c4)c3)CC2)C1 (stereo partly drawn) [Example 117, 2-((1H-pyrrolo[2,3-b]pyridin-5-yl)oxy)-4-(2-(4-(3,4-dichlorobenzyl)-2-(2-isopropylphenyl)piperazin-1-yl)-7-azaspiro[3.5]nonan-7-yl)-N-((4-((((1r,4r)-4-hydroxy-4-methylcyclohexyl)methyl)amino)-3-nitrophenyl)sulfonyl)benzamide] | 1.6 nM | 7.1 nM | 4.4 |
| COc1ccc(CN2CCN(C3CC4(CCN(c5ccc(C(=O)NS(=O)(=O)c6ccc(NC[C@H]7CC[C@](C)(O)CC7)c([N+](=O)[O-])c6)c(Oc6cnc7[nH]ccc7c6)c5)CC4)C3)C(c3ccccc3CC(C)C)C2)cc1 (stereo partly drawn) [Example 35, 2-((1H-pyrrolo[2,3-b]pyridin-5-yl)oxy)-N-((4-((((1r,4r)-4-hydroxy-4-methylcyclohexyl)methyl)amino)-3-nitrophenyl)sulfonyl)-4-(2-(2-(2-isobutylphenyl)-4-(4-methoxybenzyl)piperazin-1-yl)-7-azaspiro[3.5]nonan-7-yl) benzamide] | 2.2 nM | 163 nM | 74.1 |
| COc1ccc(N2CCCC(N3CCN(C4CC5(CCN(c6ccc(C(=O)NS(=O)(=O)c7ccc(NC[C@H]8CC[C@](C)(O)CC8)c([N+](=O)[O-])c7)c(Oc7cnc8[nH]ccc8c7)c6)CC5)C4)C(c4ccccc4C(C)C)C3)C2)cc1 (stereo partly drawn) [Example 139, 2-((1H-pyrrolo[2,3-b]pyridin-5-yl)oxy)-N-((4-((((1r,4r)-4-hydroxy-4-methylcyclohexyl)methyl)amino)-3-nitrophenyl)sulfonyl)-4-(2-(2-(2-isopropylphenyl)-4-(1-(4-methoxyphenyl)piperidin-3-yl)piperazin-1-yl)-7-azaspiro[3.5]nonan-7-yl)benzamide] | 0.65 nM | 5.6 nM | 8.7 |
| CC(C)c1ccccc1C1CN(Cc2cccc3c2CCCC3)CCN1C1CC2(CCN(c3ccc(C(=O)NS(=O)(=O)c4ccc(NCC5CCOCC5)c([N+](=O)[O-])c4)c(Oc4cnc5[nH]ccc5c4)c3)CC2)C1 (stereo not drawn) [Example 56, 2-((1H-pyrrolo[2,3-b]pyridin-5-yl)oxy)-4-(2-(2-(2-isopropylphenyl)-4-((5,6,7,8-tetrahydronaphthalen-1-yl)methyl)piperazin-1-yl)-7-azaspiro[3.5]nonan-7-yl)-N-((3-nitro-4-(((tetrahydro-2H-pyran-4-yl)methyl)amino)phenyl)sulfonyl) benzamide] | 2.7 nM | 13 nM | 4.8 |
| CC(C)c1ccccc1[C@H]1CN(C(C)C)CCN1C1CC2(CCN(c3ccc(C(=O)NS(=O)(=O)c4ccc(NC[C@H]5CC[C@](C)(O)CC5)c([N+](=O)[O-])c4)c(Oc4cnc5[nH]ccc5c4)c3)CC2)C1 (single isomer, unassigned) [Example 3b, 2-((1H-pyrrolo[2,3-b]pyridin-5-yl)oxy)-N-((4-((((1r,4r)-4-hydroxy-4-methylcyclohexyl)methyl)amino)-3-nitrophenyl)sulfonyl)-4-(2-((R or S)-4-isopropyl-2-(2-isopropylphenyl)piperazin-1-yl)-7-azaspiro[3.5]nonan-7-yl)benzamide] | 0.0083 nM | 0.14 nM | 16.9 |
| CC(C)c1ccccc1C1CN(Cc2cccc3c2OC(F)(F)O3)CCN1C1CC2(CCN(c3ccc(C(=O)NS(=O)(=O)c4ccc(NC[C@H]5CC[C@](C)(O)CC5)c([N+](=O)[O-])c4)c(Oc4cnc5[nH]ccc5c4)c3)CC2)C1 (stereo partly drawn) [Example 129, 2-((1H-pyrrolo[2,3-b]pyridin-5-yl)oxy)-4-(2-(4-((2,2-difluorobenzo [d][1,3]dioxol-4-yl)methyl)-2-(2-isopropylphenyl)piperazin-1-yl)-7-azaspiro[3.5]nonan-7-yl)-N-((4-((((1r,4r)-4-hydroxy-4-methylcyclohexyl)methyl)amino)-3-nitrophenyl)sulfonyl)benzamide] | 1.8 nM | 7.8 nM | 4.4 |
| COc1cc(CN2CCN(C3CC4(CCN(c5ccc(C(=O)NS(=O)(=O)c6ccc(NC[C@H]7CC[C@](C)(O)CC7)c([N+](=O)[O-])c6)c(Oc6cnc7[nH]ccc7c6)c5)CC4)C3)C(c3ccccc3C(C)C)C2)cc(C(F)(F)F)c1 (stereo partly drawn) [Example 227, 2-((1H-pyrrolo[2,3-b]pyridin-5-yl)oxy)-N-((4-((((1r,4r)-4-hydroxy-4-methylcyclohexyl)methyl)amino)-3-nitrophenyl)sulfonyl)-4-(2-(2-(2-isopropylphenyl)-4-(3-methoxy-5-(trifluoromethyl)benzyl)piperazin-1-yl)-7-azaspiro[3.5]nonan-7-yl) benzamide] | 2 nM | 6.4 nM | 3.2 |
